In patent US6888015B2, “Sphingolipid synthesis inhibitor” (Japan Science and Technology Agency, priority 2001, dated 2005):

What was measured:
CHO cells = experiment: Viability of cells (MTT); type: cell-based, Chinese hamster; conditions: 10 μM; data not shown
Experimental: CHO cells are seeded at a density of 2.0×10^4 per one hole of a 48-hole culture plate in 500 μL of F12 medium containing 10% NBS, and cultivated at 33[…] overnight. Then, the medium is changed to 500 μL of Nutridoma medium containing various concentrations of HPA compounds at 33° C. for 24 hours, and the viability of cells are determined using MTT as disclosed in Document 9.

SM synthase = SM synthase enzyme assay, CHO membrane fraction; type: biochemical, Chinese hamster
[1] = molecular target: T1, serine palmitoyltransferase (Cricetulus griseus, UniProt O54694+O54695); experiment: Serine palmitoyltransferase activity, CHO membrane fraction; type: biochemical, Chinese hamster; conditions: 20 μM; data not shown
T1 construct: Membrane fraction prepared from CHO cells is used as an enzyme source; endogenous in cells; host or cells: CHO cells, membrane fraction
T1 sequence (O54695 1-473): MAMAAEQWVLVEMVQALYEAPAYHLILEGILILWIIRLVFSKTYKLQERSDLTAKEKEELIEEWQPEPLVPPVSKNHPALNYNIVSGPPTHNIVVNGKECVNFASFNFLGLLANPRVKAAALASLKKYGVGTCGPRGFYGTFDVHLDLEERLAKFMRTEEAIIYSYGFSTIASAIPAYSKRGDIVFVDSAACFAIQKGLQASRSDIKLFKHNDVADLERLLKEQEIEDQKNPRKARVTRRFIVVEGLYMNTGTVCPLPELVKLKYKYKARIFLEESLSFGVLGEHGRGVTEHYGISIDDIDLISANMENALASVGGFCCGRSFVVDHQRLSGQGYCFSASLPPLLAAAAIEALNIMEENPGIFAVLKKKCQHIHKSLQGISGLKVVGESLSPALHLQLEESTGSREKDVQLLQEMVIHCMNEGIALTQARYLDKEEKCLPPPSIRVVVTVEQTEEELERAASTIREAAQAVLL
T1 sequence (O54694 1-560): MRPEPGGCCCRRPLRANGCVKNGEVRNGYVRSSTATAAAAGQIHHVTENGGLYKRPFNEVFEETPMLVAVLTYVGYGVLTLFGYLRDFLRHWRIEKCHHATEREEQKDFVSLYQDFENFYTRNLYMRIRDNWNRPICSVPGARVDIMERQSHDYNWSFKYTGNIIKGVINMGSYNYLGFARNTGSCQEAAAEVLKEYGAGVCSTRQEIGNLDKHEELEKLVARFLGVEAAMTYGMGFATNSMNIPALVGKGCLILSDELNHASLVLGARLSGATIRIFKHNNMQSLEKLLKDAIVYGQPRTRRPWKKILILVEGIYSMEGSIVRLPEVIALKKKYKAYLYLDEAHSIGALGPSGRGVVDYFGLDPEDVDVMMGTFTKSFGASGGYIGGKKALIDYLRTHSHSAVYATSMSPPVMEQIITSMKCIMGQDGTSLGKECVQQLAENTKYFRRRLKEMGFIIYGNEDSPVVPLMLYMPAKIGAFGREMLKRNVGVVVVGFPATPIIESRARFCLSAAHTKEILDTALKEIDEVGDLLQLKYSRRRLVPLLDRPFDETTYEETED
Experimental: (§1) Membrane fraction prepared from CHO cells is used as an enzyme source.
(§2) Serine palmitoyltransferase activity is determined by the method disclosed in Document 7, and sphingosine N-acyl transferase activity is determined by a modification of the method disclosed in Document 7.

[2] = test system: sphingosine N-acyl transferase; experiment: Sphingosine N-acyl transferase activity, CHO membrane fraction; type: biochemical, Chinese hamster; conditions: 20 μM; data not shown
Experimental: as §1, §2

[3] = test system: SM synthesis in BFA-treated cells; experiment: [14C]serine labeling in BFA-treated cells (ER and Golgi merged); type: cell-based, Chinese hamster; conditions: 1 μM; cells treated with 1 μg/mL BFA (FIG. 5)
Experimental: For the metabolic labeling by [^14C] serine in BFA-treated cells, the cells are preincubated with 1 μg/mL BFA in Nutridoma medium at 33° C. for 30 minutes, then, treated with or without 1 μM HPA-12 in the presence of 1 μg/mL BFA at 4° C. for 15 minutes prior to addition of [^14C] serine.

[4] = test system: transport of Cer from the ER to the Golgi apparatus; experiment: Intracellular redistribution and metabolism of C5-DMB-Cer; type: cell-based, Chinese hamster
Experimental: After CHO cells seeded in 60-mm dishes are cultured overnight, said CHO cells are labeled with 1 μM C5-DMB-Cer in 1.5 mL of Nutridoma medium at 4° C. for 30 minutes. Then, after obtained said cells are washed 3 times with F12 medium, said cells are incubated in Nutridoma medium in the presence or absence of 2.5 μM HPA-12 for 15 minutes at 4° C., and then further incubated at 33° C. for various periods of time.
After washed with PBS, the chased cells are lysed with 0.1% SDS as mentioned above. The lipids extracted from cell lysate are separated by high performance TLC with a solvent of chloroform/methanol/H2O (volume ratio, 65:25:4). Quantitative measurement of C5-DMB-SM and C5-DMB-Cer are performed by scraping gel from TLC plates, extracting by chloroform/methanol/H2O (volume ratio, 1:2:0.8), and by measuring DMB fluorescence (excitation wave length 480 nm, emission wave length 515 nm) of the extracted product.
After CHO cells grown on the glass coverslip (22-mm diameter) in 35 mm dishes are incubated in F12 medium containing 1 μM C5-DMB-Cer at 4[…] for 30 minutes for pulse label, washed three times with 1 mL of F12 medium, and incubated in 1 mL of Nutridoma medium in the presence or absence of 2.5 μM HPA-12 at 4° C. for 15 minutes. Then, the pulse-labeled cells are incubated at 33° C. for 15 minutes for chase, washed with PBS containing 0.125% glutaraldehyde at 4° C. for 5 minutes. […]

Structure (SMILES): CCCCCCCCCCCC(=O)NC(CO)CC(O)c1ccccc1 (stereo not drawn) [HPA-12, N-(3-hydroxy-1-hydroxymethyl-3-phenylprol)dodecaneamide]
- toxicity to CHO cells (CHO cells): highly toxic
- C6-NBD-SM formed (SM synthase activity) (SM synthase; 20 μM, substrate C6-NBD-Cer): 168.1 ± 1.7 pmol/mg protein/10 minutes
- inhibition of SM synthase (SM synthase; 20 μM, substrate C6-NBD-Cer): Neither of SM synthase nor GlcCer synthase is inhibited
- inhibition of SM synthase activity (SM synthase; substrate C5-DMB-Cer, data not shown): not observed
- activity of serine palmitoyltransferase [1]: does not affect
- activity of sphingosine N-acyl transferase [2]: does not affect
- formation of [14C]serine-derived SM [3]: no longer inhibits
- accumulation of DMB-fluorescence to the perinuclear Golgi region vs untreated control ([4]; 2.5 μM, chase at 33° C. for 15 minutes): clearly lower
- inhibition of conversion of C5-DMB-Cer to C5-DMB-SM ([4]; HPA-12 treated cells, data not shown): 50%
